{"source": "patent US10703745B2", "about": "“Acyl phosphonamidates and acyl benzylamines that are Bcl family antagonists for use in clinical management of conditions caused or mediated by senescent cells and for treating cancer” (Unity Biotechnology, Inc., priority 2018, dated 2020)", "key": {"[1]": {"tested_on": "3MR or INK-ATTAC mice exposed to cigarette smoke", "assay": "Cigarette smoke COPD model, oxygen saturation by pulse oximeter", "type": "in vivo, mouse", "settings": "after two months of cigarette smoke exposure, compared with untreated controls", "description": "The mice used in this study include the 3MR strain, described in US 2017/0027139 A1 and in Demaria et al., Dev Cell. 2014 Dec. 22; 31(6): 722-733. The 3MR mouse has a transgene encoding thymidine kinase that converts the prodrug ganciclovir (GCV) to a compound that is lethal to cells. The enzyme in the transgene is placed under control of the p16 promoter, which causes it to be specifically expressed in senescent cells. Treatment of the mice with GCV eliminates senescent cells.\nOther mice used in this study include the INK-ATTAC strain, described in US 2015/0296755 A1 and in Baker et al., Nature 2011 Nov. 2; 479(7372):232-236. The INK-ATTAC mouse has a transgene encoding switchable caspase 8 under control of the p16 promoter. The caspase 8 can be activated by treating the mice with the switch compound AP20187, whereupon the caspase 8 directly induces apoptosis in senescent cells, eliminating them from the mouse.\nTo conduct the experiment, six-week-old 3MR (n=35) or INK-ATTAC (n=35) mice were chronically exposed to cigarette smoke generated from a Teague TE-10 system, an automatically-controlled cigarette smoking machine that produces a combination of side-stream and mainstream cigarette smoke in a chamber, which is transported to a collecting and mixing chamber where varying amounts of air is mixed with the smoke mixture. The COPD protocol was adapted from the COPD core facility at Johns Hopkins University (Rangasamy et al., 2004, J. Clin. Invest. 114:1248-1259; Yao et al., 2012, J. Clin. Invest. 122:2032-2045).\nMice received a total of 6 hours of cigarette smoke exposure per day, 5 days a week for 6 months. Each lighted cigarette (3R4F research cigarettes containing 10.9 mg of total particulate matter (TPM), 9.4 mg of tar, and 0.726 mg of nicotine, and 11.9 mg carbon monoxide per cigarette [University of Kentucky, Lexington, Ky.]) was puffed for 2 seconds and once every minute for a total of 8 puffs, with the flow rate of 1.05 L/min, to provide a standard puff of 35 cm3. The smoke machine was adjusted to produce a mixture of side stream smoke (89%) and mainstream smoke (11%) by smoldering 2 cigarettes at one time. The smoke chamber atmosphere was monitored for total suspended particulates (80-120 mg/m3) and carbon monoxide (350 ppm). […]\nAfter two months of cigarette smoke (CS) exposure, lung function was assessed by monitoring oxygen saturation using the MouseSTAT PhysioSuite™ pulse oximeter (Kent Scientific). […] Mice were monitored for 30 seconds and the average peripheral capillary oxygen saturation (SpO2) measurement over this duration was calculated."}, "[2]": {"tested_on": "primary cells from patients with B-cell malignancies", "settings": "in vitro; cited from earlier work"}, "cancer cells": {"tested_on": "cancer cells", "settings": "cited from earlier work"}, "[3]": {"tested_on": "C57BL/6J mice with surgery-induced osteoarthritis", "assay": "Osteoarthritis model: histopathology of joint tissue", "type": "in vivo, mouse", "settings": "ACL surgery, 4 weeks post-surgery", "procedure": "(§1) The model was implemented as follows. C57BL/6J mice underwent surgery to cut the anterior cruciate ligament of one rear limb to induce osteoarthritis in the joint of that limb. During week 3 and week 4 post-surgery, the mice were treated with 5.8 μg of Nutlin-3A (n=7) per operated knee by intra-articular injection, q.o.d. for 2 weeks. At the end of 4 weeks post-surgery, joints of the mice were monitored for presence of senescent cells, assessed for function, monitored for markers of inflammation, and underwent histological assessment."}, "[4]": {"tested_on": "LDLR-/- mice fed a high fat diet", "assay": "Atherosclerosis model: Sudan IV staining of aortic plaques", "type": "in vivo, mouse", "settings": "timepoint 3 (week 12), 25 mg/kg intraperitoneally, HFD", "procedure": "(§2) Two groups of LDLR−/− mice (10 weeks) are fed a high fat diet (HFD) (Harlan Teklad TD.88137) having 42% calories from fat, beginning at Week 0 and throughout the study. Two groups of LDLR−/− mice (10 weeks) are fed normal chow (−HFD). From weeks 0-2, one group of HFD mice and −HFD mice are treated with Nutlin-3A (25 mg/kg, intraperitoneally). One treatment cycle is 14 days treatment, 14 days off. Vehicle is administered to one group of HFD mice and one group of −HFD mice. At week 4 (timepoint 1), one group of mice are sacrificed and to assess presence of senescent cells in the plaques. For the some of the remaining mice, Nutlin-3A and vehicle administration is repeated from weeks 4-6. At week 8 (timepoint 2), the mice are sacrificed and to assess presence of senescent cells in the plaques. The remaining mice are treated with Nutlin-3A or vehicle from weeks 8-10. At week 12 (timepoint 3), the mice are sacrificed and to assess the level of plaque and the number of senescent cells in the plaques.\n(§3) At the end of timepoint 3, LDLR−/− mice fed a HFD and treated with Nutlin-3A or vehicle (n=3 for all groups) were sacrificed, and aortas were dissected and stained with Sudan IV to detect the presence of lipid. Body composition of the mice was analyzed by MRI, and circulating blood cells were counted by Hemavet™."}, "[5]": {"tested_on": "LDLR-/- mice fed a high fat diet", "assay": "Atherosclerosis model: body composition by MRI and circulating blood cell counts", "type": "in vivo, mouse", "settings": "timepoint 3", "procedure": "as §2, §3"}, "[6]": {"tested_on": "C57BL/6J mice with surgery-induced osteoarthritis", "assay": "Osteoarthritis model (ACL surgery): qRT-PCR of senescence markers and SASP factors in operated joints", "type": "in vivo, mouse", "settings": "5.8 μg per operated knee intra-articular, 4 weeks post-surgery", "procedure": "as §1\nTwo control groups of mice were included in the studies performed: one group comprising C57BL/6J or 3MR mice that had undergone a sham surgery (n=3) (i.e., surgical procedures followed except for cutting the ACL) and intra-articular injections of vehicle parallel to the GCV (ganciclovir) treated group; and one group comprising C57BL/6J or 3MR mice that had undergone an ACL surgery and received intra-articular injections of vehicle (n=5) parallel to the GCV-treated group. RNA from the operated joints of mice from the Nutlin-3A treated mice was analyzed for expression of SASP factors (mmp3, IL-6) and senescence markers (p16). qRT-PCR was performed to detect mRNA levels."}, "[7]": {"tested_on": "C57BL/6J mice with surgery-induced osteoarthritis", "assay": "Osteoarthritis model: weight bearing test of hind limbs", "type": "in vivo, mouse", "settings": "4 weeks post-surgery", "procedure": "as §1\nFunction of the limbs was assessed 4 weeks post-surgery by a weight bearing test to determine which leg the mice favored. The mice were allowed to acclimate to the chamber on at least three occasions prior to taking measurements. Mice were maneuvered inside the chamber to stand with one hind paw on each scale. The weight that was placed on each hind limb was measured over a three second period. At least three separate measurements were made for each animal at each time point. The results were expressed as the percentage of the weight placed on the operated limb versus the contralateral unoperated limb."}, "[8]": {"tested_on": "LDLR-/- mice fed a high fat diet", "assay": "Atherosclerosis model: RT-PCR of SASP factors and senescent cell markers in aortic arch", "type": "in vivo, mouse", "settings": "25 mg/kg intraperitoneally, HFD", "procedure": "as §2, with “At week 8 (timepoint 2), the mice are sacrificed and to assess presence of senescent cells in the plaques. The remaining mice are treated with Nutlin-3A or vehicle from weeks 8-10. At week 12 (timepoint 3), the mice are sacrificed and to assess the level of plaque and the number of senescent cells in the plaques.” left out\nAt the end of timepoint 1, LDLR−/− mice fed a HFD and treated with Nutlin-3A or vehicle were sacrificed (n=3, all groups), and the aortic arches were dissected for RT-PCR analysis of SASP factors and senescent cell markers. Values were normalized to GAPDH and expressed as fold-change versus age-matched, vehicle-treated LDLR−/− mice on a normal diet.\nAt the end of timepoint 2, LDLR−/− mice fed a HFD and treated with Nutlin-3A or vehicle (n=3 for all groups) were sacrificed, and aortic arches were dissected for RT-PCR analysis of SASP factors and senescent cell markers. Values were normalized to GAPDH and expressed as fold-change versus age-matched, vehicle-treated LDLR−/− mice on a normal diet."}}}
{"smiles": "CC1(C)CCC(c2ccc(Cl)cc2)=C(CN2CCN(c3ccc(C(=O)NS(=O)(=O)c4ccc(N[C@H](CCN5CCOCC5)CSc5ccccc5)c(S(=O)(=O)C(F)(F)F)c4)cc3)CC2)C1", "note": "[ABT-263, Navitoclax]", "values": [{"measurement": "SpO2 levels", "setting": "[1]", "result": "statistically significant increases"}]}
{"smiles": "CN(C)CC[C@H](CSc1ccccc1)Nc1ccc(S(=O)(=O)NC(=O)c2ccc(N3CCN(Cc4ccccc4-c4ccc(Cl)cc4)CC3)cc2)cc1[N+](=O)[O-]", "note": "[ABT-737]", "values": [{"measurement": "sensitivity of primary cells from patients with B-cell malignancies", "setting": "[2]", "result": "sensitive"}, {"measurement": "dose-limiting toxicity in human patients", "setting": "cancer cells", "result": "dose-limiting thrombocytopenia"}, {"measurement": "efficacy against cancer cells in human patients", "setting": "cancer cells", "result": "effective against some types of cancer cells"}]}
{"smiles": "CC[C@H](C(=O)N1CCCC[C@H]1C(=O)O[C@H](CCc1ccc(OC)c(OC)c1)c1cccc(OCC(=O)NCC(CNC(=O)COc2cccc([C@@H](CCc3ccc(OC)c(OC)c3)OC(=O)[C@@H]3CCCCN3C(=O)[C@@H](CC)c3cc(OC)c(OC)c(OC)c3)c2)CN(C)C)c1)c1cc(OC)c(OC)c(OC)c1", "note": "[AP2018]", "values": [{"measurement": "SpO2 levels", "setting": "[1]", "result": "statistically significant increases"}]}
{"smiles": "COc1ccc(C2=N[C@@H](c3ccc(Cl)cc3)[C@@H](c3ccc(Cl)cc3)N2C(=O)N2CCNC(=O)C2)c(OC(C)C)c1", "note": "[Nutlin-3A]", "values": [{"measurement": "destruction of the proteoglycan layer (histopathology)", "setting": "[3]", "result": "completely abrogated this effect"}, {"measurement": "SpO2 levels", "setting": "[1]", "result": "statistically significant increases"}, {"measurement": "reduction of surface area covered by plaques in the descending aorta", "setting": "[4]", "result": "about 45%"}, {"measurement": "body fat composition", "setting": "[5]; mice fed the high fat diet", "result": "decreased"}, {"measurement": "mass", "setting": "[5]; mice fed the high fat diet", "result": "decreased"}, {"measurement": "lymphocyte counts versus vehicle treated mice", "setting": "[5]", "result": "equivalent"}, {"measurement": "platelet counts versus vehicle treated mice", "setting": "[5]", "result": "equivalent"}, {"measurement": "expression of IL-6 in the tissue", "setting": "[6]; q.o.d. for 2 weeks, mRNA", "result": "reduced the expression back to below the level of the controls"}, {"measurement": "expression of MMP13 in the tissue", "setting": "[6]; q.o.d. for 2 weeks, mRNA", "result": "reduced the expression back to below the level of the controls"}, {"measurement": "expression of p16 in the tissue", "setting": "[6]; q.o.d. for 2 weeks, mRNA", "result": "reduced the expression back to below the level of the controls"}, {"measurement": "senescent cells in the joint", "setting": "[6]", "result": "cleared senescent cells from the joint"}, {"measurement": "weight placed on operated limb versus contralateral unoperated limb (favoring of unoperated hind limb)", "setting": "[7]", "result": "abrogated this effect"}, {"measurement": "expression of SASP factors and senescent cell markers MMP3, MMP13, PAI1, p21, IGFBP2, IL-1A, IL-1B in aortic arch", "setting": "[8]; timepoint 1 (week 4), one treatment cycle", "result": "reduced expression of several SASP factors and senescent cell markers"}, {"measurement": "expression of SASP factors and senescent cell markers in aortic arch", "setting": "[8]; timepoint 2 (week 8), multiple treatment cycles", "result": "reduced expression of most markers"}]}
{"smiles": "Nc1nc(O)c2ncn(COC(CO)CO)c2n1", "note": "[ganciclovir]", "values": [{"measurement": "SpO2 levels", "setting": "[1]", "result": "statistically significant increases"}]}
